Columns and labels:
morningglory = assay: Test B pre/postemergence morningglory; assay type: in vivo, Ipomoea hederacea
Outline: (§1)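 Test chemicals in a non-phytotoxic solvent mixture with surfactant were sprayed preemergence onto planted seeds and postemergence onto plants 2 to 18 cm tall (1- to 4-leaf stage). After twelve to sixteen days in a greenhouse, injury was visually rated against untreated controls from 0 (no effect) to 10 (complete control).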

pigweed = assay: Test B pre/postemergence pigweed; assay type: in vivo, Amaranthus retroflexus
Outline: as §1

wild oat = assay: Test B pre/postemergence wild oat; assay type: in vivo, Avena fatua
Outline: as §1

soybean = assay: Test B pre/postemergence soybean; assay type: in vivo, Glycine max
Outline: as §1

cocklebur = assay: Test B pre/postemergence cocklebur; assay type: in vivo, Xanthium strumarium
Outline: as §1

smallflower flatsedge = assay: Test B flood test smallflower flatsedge; assay type: in vivo, Cyperus difformis
Outline: (§2)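 Flood test on plants grown to the 2-leaf stage; treated plants kept in greenhouse twelve to sixteen days, then visually rated against controls on a 0 (no effect) to 10 (complete control) scale.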

rice = assay: Test B flood test rice; assay type: in vivo, Oryza sativa
Outline: as §2

surinam grass = assay: Test B pre/postemergence surinam grass; assay type: in vivo, Brachiaria decumbens
Outline: as §1

giant foxtail = assay: Test B pre/postemergence giant foxtail; assay type: in vivo, Setaria faberii
Outline: as §1

corn = assay: Test B pre/postemergence corn; assay type: in vivo, Zea mays
Outline: as §1

duck salad = assay: Test B flood test duck salad; assay type: in vivo, Heteranthera limosa
Outline: as §2

crabgrass = assay: Test B pre/postemergence crabgrass; assay type: in vivo, Digitaria sanguinalis
Outline: as §1

purple nutsedge = assay: Test B pre/postemergence purple nutsedge; assay type: in vivo, Cyperus rotundus
Outline: as §1

sugar beet = assay: Test B pre/postemergence sugar beet; assay type: in vivo, Beta vulgaris
Outline: as §1

rape = assay: Test B pre/postemergence rape; assay type: in vivo, Brassica napus
Outline: as §1

bamyardgrass = assay: Test B flood test barnyardgrass; assay type: in vivo, Echinochloa crus-galli
Outline: as §2

[1] = Postemergence, Rate 250 g/ha, scale 0 to 10
[2] = Postemergence, Rate 500 g/ha, scale of 0 to 10 where 0 is no effect and 10 is complete control
[3] = Preemergence, Rate 62 g/ha, scale 0 to 10 (0 no effect, 10 complete control)
[4] = Preemergence, Rate 125 g/ha, scale of 0 to 10 where 0 is no effect and 10 is complete control
[5] = Preemergence, Rate 250 g/ha, scale 0 to 10, 0 is no effect, 10 is complete control
[6] = Preemergence, Rate 500 g/ha, scale 0 to 10, 0 is no effect, 10 is complete control
[7] = Rate 62 g/ha, Postemergence, scale 0 to 10 (0 no effect, 10 complete control)
[8] = Rate 125 g/ha, Postemergence, scale 0 to 10, 0 is no effect, 10 is complete control
[9] = Postemergence block (flood test species), Rate 250 g/ha, scale 0 to 10
[10] = Postemergence section (flood test species), Rate 500 g/ha, scale of 0 to 10 where 0 is no effect and 10 is complete control
[11] = Rate 62 g/ha, Postemergence (flood test), scale 0 to 10, 0 no effect, 10 complete control
[12] = Rate 125 g/ha, Postemergence section (flood test species), scale 0 to 10, 0 is no effect, 10 is complete control

## CC(C)N(C(=O)n1oc(=O)n(C(C)C#N)c1=O)c1ccccc1 (stereo not drawn) [Compound 435]
morningglory; [1]
  Morningglory plant response rating: 6
morningglory; [2]
  Morningglory plant response rating: 9
morningglory; [3]
  Plant response rating, Morningglory: 0
morningglory; [4]
  Plant response rating, Morningglory: 0
morningglory; [5]
  Morningglory plant response rating: 0
morningglory; [6]
  Morningglory plant response rating: 0
morningglory; [7]
  Morningglory plant response rating: 1
morningglory; [8]
  Morningglory plant response rating: 2
pigweed; [1]
  Redroot pigweed plant response rating: 2
pigweed; [2]
  Redroot pigweed plant response rating: 2
pigweed; [3]
  Plant response rating, Redroot pigweed: 2
pigweed; [4]
  Plant response rating, Redroot pigweed: 2
pigweed; [5]
  Redroot pigweed plant response rating: 4
pigweed; [6]
  Redroot pigweed plant response rating: 8
pigweed; [7]
  Redroot pigweed plant response rating: 0
pigweed; [8]
  Redroot pigweed plant response rating: 0
Wild oat; [1]
  Wild oats plant response rating: 0
Wild oat; [2]
  Wild oats plant response rating: 3
Wild oat; [3]
  Plant response rating, Wild oats: 0
Wild oat; [4]
  Plant response rating, Wild oats: 0
Wild oat; [5]
  Wild oats plant response rating: 2
Wild oat; [6]
  Wild oats plant response rating: 3
Wild oat; [7]
  Wild oats plant response rating: 0
Wild oat; [8]
  Wild oats plant response rating: 0
soybean; [1]
  Soybean plant response rating: 1
soybean; [2]
  Soybean plant response rating: 3
soybean; [3]
  Plant response rating, Soybean: 0
soybean; [4]
  Plant response rating, Soybean: 0
soybean; [5]
  Soybean plant response rating: 0
soybean; [6]
  Soybean plant response rating: 0
soybean; [7]
  Soybean plant response rating: 0
soybean; [8]
  Soybean plant response rating: 1
cocklebur; [1]
  Cocklebur plant response rating: 0
cocklebur; [2]
  Cocklebur plant response rating: 0
cocklebur; [3]
  Plant response rating, Cocklebur: 0
cocklebur; [4]
  Plant response rating, Cocklebur: 0
cocklebur; [5]
  Cocklebur plant response rating: 0
cocklebur; [6]
  Cocklebur plant response rating: 0
cocklebur; [7]
  Cocklebur plant response rating: 0
cocklebur; [8]
  Cocklebur plant response rating: 0
Smallflower flatsedge; [9]
  S. Flatsedge plant response rating: 0
Smallflower flatsedge; [10]
  S. Flatsedge plant response rating: 0
Smallflower flatsedge; [11]
  S. Flatsedge plant response rating: 0
Smallflower flatsedge; [12]
  S. Flatsedge plant response rating: 0
rice; [9]
  Rice plant response rating: 0
rice; [10]
  Rice plant response rating: 0
rice; [11]
  Rice plant response rating: 0
rice; [12]
  Rice plant response rating: 0
Surinam grass; Postemergence, Rate 250 g/ha, scale 0 to 10, 0 no effect, 10 complete control
  B. signalgrass plant response rating: 1
Surinam grass; [2]
  B. signalgrass plant response rating: 3
Surinam grass; [3]
  Plant response rating, B. signalgrass: 0
Surinam grass; [4]
  Plant response rating, B. signalgrass: 0
Surinam grass; [5]
  B. signalgrass plant response rating: 0
Surinam grass; [6]
  B. signalgrass plant response rating: 1
Surinam grass; [7]
  B. signalgrass plant response rating: 0
Surinam grass; [8]
  B. signalgrass plant response rating: 0
Giant foxtail; [1]
  Giant foxtail plant response rating: 8
Giant foxtail; [2]
  Giant foxtail plant response rating: 9
Giant foxtail; [3]
  Plant response rating, Giant foxtail: 0
Giant foxtail; [4]
  Plant response rating, Giant foxtail: 2
Giant foxtail; [5]
  Giant foxtail plant response rating: 3
Giant foxtail; [6]
  Giant foxtail plant response rating: 9
Giant foxtail; [7]
  Giant foxtail plant response rating: 0
Giant foxtail; [8]
  Giant foxtail plant response rating: 3
corn; [1]
  Corn plant response rating: 0
corn; [2]
  Corn plant response rating: 0
corn; [3]
  Plant response rating, Corn: 0
corn; [4]
  Plant response rating, Corn: 0
corn; [5]
  Corn plant response rating: 0
corn; [6]
  Corn plant response rating: 0
corn; [7]
  Corn plant response rating: 0
corn; [8]
  Corn plant response rating: 0
Duck salad; [9]
  Ducksalad plant response rating: 0
Duck salad; [10]
  Ducksalad plant response rating: 0
Duck salad; [11]
  Ducksalad plant response rating: 0
Duck salad; [12]
  Ducksalad plant response rating: 0
crabgrass; [1]
  Crabgrass plant response rating: 7
crabgrass; [2]
  Crabgrass plant response rating: 8
crabgrass; [4]
  Plant response rating, Crabgrass: 2
crabgrass; [5]
  Crabgrass plant response rating: 6
crabgrass; [6]
  Crabgrass plant response rating: 9
crabgrass; [7]
  Crabgrass plant response rating: 0
crabgrass; [8]
  Crabgrass plant response rating: 2
Purple nutsedge; [1]
  Nutsedge plant response rating: 0
Purple nutsedge; [2]
  Nutsedge plant response rating: 3
Purple nutsedge; [3]
  Plant response rating, Nutsedge: 0
Purple nutsedge; [4]
  Plant response rating, Nutsedge: 0
Purple nutsedge; [5]
  Nutsedge plant response rating: 0
Purple nutsedge; [6]
  Nutsedge plant response rating: 0
Purple nutsedge; [7]
  Nutsedge plant response rating: 0
Purple nutsedge; [8]
  Nutsedge plant response rating: 0
Sugar beet; [1]
  Sugarbeets plant response rating: 0
Sugar beet; [2]
  Sugarbeets plant response rating: 0
Sugar beet; [3]
  Plant response rating, Sugarbeets: 0
Sugar beet; [4]
  Plant response rating, Sugarbeets: 0
Sugar beet; [5]
  Sugarbeets plant response rating: 0
Sugar beet; [6]
  Sugarbeets plant response rating: 1
Sugar beet; [7]
  Sugarbeets plant response rating: 0
Sugar beet; [8]
  Sugarbeets plant response rating: 0
rape; [1]
  Rape plant response rating: 0
rape; [2]
  Rape plant response rating: 0
rape; [3]
  Plant response rating, Rape: 0
rape; [4]
  Plant response rating, Rape: 0
rape; [5]
  Rape plant response rating: 0
rape; [6]
  Rape plant response rating: 0
rape; [7]
  Rape plant response rating: 0
rape; [8]
  Rape plant response rating: 0
bamyardgrass; [9]
  Barnyardgrass plant response rating: 0
bamyardgrass; [10]
  Barnyardgrass plant response rating: 0
bamyardgrass; [11]
  Barnyardgrass plant response rating: 0
bamyardgrass; [12]
  Barnyardgrass plant response rating: 0

Source: patent US6737383B1, “Herbicidal oxadiazolidines” (priority 1999, dated 2004)
